{
  "source": "patent US20240091227A1",
  "about": "“Use Of 2-Phenyl-6-(1H-Imidazol-1-YL) Quinazoline For Treating Neurodegenerative Diseases, Preferably Alzheimer's Disease” (ROTTAPHARM BIOTECH S.R.L., priority 2019, published 2024)",
  "test_system": "PKCε",
  "test": "PKCε translocation to the plasma membrane in cultured dorsal root ganglia neurons",
  "assay_type": "cell-based, rat",
  "details": "idazoxan pre-applied 10 minutes at 10 and 100 μM, toward 1 μM CR4056",
  "method": "FIG. 1 reports the time-course (A) and washout (B) of CR4056 effect on PKCF translocation induced by bradykinin (BK 1 μM). In Panel A, open symbols represent the percentage of neurons positive for PKCF translocation following BK stimulation in absence of the drug. Filled symbols represent neurons pre-incubated with CR4056 ([…]) for different times before the stimulation for 30 seconds with BK+CR4056. The first filled symbol indicates the effect of CR4056 co-incubated for 30 seconds with BK, the second filled symbol indicates 10 seconds of pre-incubation of CR4056, and the last indicates 24 hours of pre-incubation of CR4056. […] In Panel B, BK-induced PKCF translocation was evaluated before (open symbol) and after pre-incubation of CR4056 ([…]) at different time intervals (from 10 minutes to 8 hours) (filled symbols). The first datapoint was obtained at the end of the 10 minute pre-incubation, when CR4056 was still present. The subsequent datapoints were obtained after extensive rinsing to ensure complete removal of the drug from extracellular solution (n=3).\nRat dorsal root ganglia (DRGs) were obtained from freshly isolated spines after carefully removing nerve trunks and connective tissue. Larger ganglia, chopped into 2-4 smaller pieces were then incubated for 1 hour at 37° C. in 0.125% collagenase (Worthington, Freehold, NJ) dissolved in Dulbecco's modified Eagle's medium (DMEM) containing 10% fetal bovine serum (FBS) plus 1% penicillin/streptomycin and 1% L-glutamine (Euroclone, Milan, Italy). After enzymatic digestion, ganglia were mechanically dissociated and neurons plated at a density such that neurons would cover about 30% of coverslip surface in a single layer, in petri dishes containing wells with a glass bottom coverslip (pre-coated with 10 μg/mL poly-L-lysine and 20 µg/ml laminin, Sigma-Aldrich, Milan, Italy). Cells were incubated for 2-3 days in DMEM as described above, plus 1.5 μg/ml cytosine 1-d-arabinofuranoside (ARA-C, Sigma-Aldrich) to slow down proliferation of non neuronal cells, and 100 ng/ml nerve growth factor (NGF, Sigma-Aldrich) to increase cell health and the and the expression of receptors which are linked to PKCF translocation upon stimulation. Activation of membrane receptors coupled to phospholipase C pathway leads to PKCF translocation from cytoplasm to the plasma membrane. In order to study PKCε behaviour a well established technique was employed (Vellani V, Neuroscience, 2006). […] CR4056 was pre-applied in the culture medium for 10 min or co-applied with the stimulus. After fixation, cells were permeabilized with 0.2% Triton X-100 (Sigma-Aldrich, Milan, Italy) and exposed overnight to a rabbit polyclonal antibody highly specific for PKCF. After extensive rinsing, PKCF was visualized with a secondary antibody (1:200 dilution Alexa Fluor 488 goat anti-rabbit, Thermo Fisher Scientific, Monza, Italy) applied for 2-4 hours at room temperature in the dark Cells showing PKCF translocation were detected with a confocal microscope (Leica SP2, Leica, Switzerland) by measuring fluorescence intensity along a line drawn through the cytoplasm and the membrane, thus avoiding the nucleus. Neurons in which fluorescence intensity at the plasma membrane throughout the cell was 1.5-fold or higher than the mean cytoplasmic intensity were considered positive.",
  "data": [
    {"smiles": "c1ccc2c(c1)OCC(C1=NCCN1)O2", "note": "(stereo not shown) [Idazoxan, idazoxan, reference compound]", "values": [
      {"measurement": "Effect of idazoxan on the block of PKCF translocation by CR4056", "value": "completely ineffective"}
    ]}
  ]
}
